# Reference: ChEMBL document CHEMBL1145433, “Nuttingins A-F and malonganenones D-H, tetraprenylated alkaloids from the Tanzanian gorgonian Euplexaura nuttingi” (2007)
# Active and inactive are the calls of the source. No cut-off for these calls is given here.
# Experiments:
# UT7 [1] = experiment: Growth inhibition of human UT7 cells by MTT assay; format: functional, cell-based
# K562 [2] = experiment: Growth inhibition of human K562 cells by MTT assay; format: functional, cell-based
# K562 [3] = experiment: Growth inhibition of human K562 cells at 0.4 ug/mL after 48 hrs by MTT assay; format: functional; conditions: K562, 48 h
# UT7 [4] = experiment: Growth inhibition of human UT7 cells at 0.4 ug/mL after 48 hrs by MTT assay; format: functional; conditions: UT7, 48 h
# HEK293 = experiment: Induction of apoptosis in 293 cells at 1.25 ug/mL; format: functional, cell-based; conditions: Homo sapiens
Structure (SMILES),Activity (UT7 [1]),Activity (K562 [2]),inhibition at 0.4 µg/mL (K562 [3]) [%],inhibition at 0.4 µg/mL (UT7 [4]) [%],Activity (HEK293)
C/C(=C\Cn1cnc2c1C(=O)N(C)CN2C)CC/C=C(\C)CCC/C(C)=C/C(=O)CC(C)C [NUTTINGIN D],Dose-dependent effect,Dose-dependent effect,30,50,Active
C/C(=C\CC/C(C)=C/Cn1cnc2c1c(=O)n(C)c(=O)n2C)CC/C=C(\C)CC(=O)CC(C)C,,,,,Active
C/C(=C\CC/C(C)=C/Cn1cnc2c1C(=O)N(C)CN2C)CC/C=C(\C)CC(=O)CC(C)C [NUTTINGIN C],Dose-dependent effect,Dose-dependent effect,30,50,Active
C/C(=C\Cn1cnc2c1c(=O)ncn2C)CC/C=C(\C)CCC/C(C)=C/C(=O)CC(C)C,,,,,Active
CNC(=O)c1c(N(C)C=O)ncn1C/C=C(\C)CC/C=C(\C)CCC/C(C)=C/C(=O)CC(C)C,,,,,Active
C/C(=C\CC/C(C)=C/Cn1cnc2c1c(=O)ncn2C)CC/C=C(\C)CC(=O)CC(C)C,,,,,Active
C/C(=C\CNC=O)CC/C=C(\C)CCC/C(C)=C/C(=O)CC(C)C,,,,,Active
C/C(=C/C(=O)CC(C)C)CCC/C(C)=C/CC/C(C)=C/Cn1cnc2c1C(=O)N(C)CN2C [NUTTIGIN E],,,30,50,Active
CNC(=O)c1c(N(C)C=O)ncn1C/C=C(\C)CC/C=C(\C)CC/C=C(\C)CC(=O)CC(C)C,,,,,Active
C/C(=C/C(=O)CC(C)C)CCC/C(C)=C/CC/C(C)=C/Cn1cnc2c1c(=O)n(C)c(=O)n2C,,,,,Active
